From PubChem BioAssay AID463199 (Broad Institute, 2010)
The source made the active and inactive calls.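 Rule for the calls: active = AC50, the dose giving half-maximal effect, exceeds a fixed cutoff for a compound that rescues yeast growth under heat; inactive = the rest, inconclusive results apart.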

Each compound was assayed on S. cerevisiae Burl-1 ts mutant growth, BacTiter-Glo, 38.5C 24 h (assay: growth induction of Burl-1 ts yeast mutant, dose response, counter-screen for SUMOylation pathway inhibitor project, whole organism, S. cerevisiae, luminescence (AID 463199)).

Row | SMILES | AC50
1 | Cc1cc(=O)oc2ccc(OC(=O)CC(C)C)cc12 | > 42 µM (inactive)
2 | O=C(Nc1cccnc1Cl)c1cc2ccccc2o1 | > 42 µM (inactive)
3 | C=C1C(O)[C@@H]2O[C@]3(CC[C@H](/C=C/C(C)[C@@H]4CC(C)=CC5(O[C@H](C[C@@](C)(O)C(=O)O)CCC5O)O4)O3)CC[C@H]2O[C@@H]1C(O)CC(C)[C@H]1OC2(CCCCO2)CCC1C (stereo not given in full) | 4.06 µM
4 | Cc1ccc(S(=O)(=O)N2[C@@H](c3ccccc3)C(C(=O)O)=CC[C@H]2c2ccc(Cl)cc2)cc1 | > 42 µM (inactive)
5 | O=C(COC(=O)CNC(=O)c1ccc(Cl)cc1)Nc1ncc(C(F)(F)F)cc1Cl | > 42 µM (inactive)
6 | CC(C(=O)N1CCN(C(=O)c2ccco2)CC1)n1sc2ccccc2c1=O (stereo not given) | > 42 µM (inactive)
7 | CCOC(=O)NNC(=O)CCn1c2c(c3ccccc31)CCCC2 | > 42 µM (inactive)
8 | CCCc1nnc(NC(=O)c2cn(CC)c3cc(N4CCN(C)CC4)c(F)cc3c2=O)s1 | > 21 µM (inactive)
9 | CC(=O)N(C)c1ccc(N2CCOCC2)c2c1C(=O)c1ccccc1C2=O | > 42 µM (inactive)
10 | COc1ccccc1CNc1nc(SC)ncc1CO | > 42 µM (inactive)
11 | O=C(CN1CCN(Cc2ccc(F)cc2)CC1)NCc1ccccc1 | > 42 µM (inactive)
12 | CN1CCN(CC(=O)N2c3ccccc3C(=O)Nc3cccnc32)CC1 | > 42 µM (inactive)
13 | CCc1cc2c(=O)c(-c3ccc(F)cc3)c(C(F)(F)F)oc2cc1OCC(=O)O | > 42 µM (inactive)
14 | CC(=O)N1CCc2cc(S(=O)(=O)NCCC3=CCCCC3)ccc21 | > 42 µM (inactive)
15 | COC(=O)[C@@]12CCCCN1[C@H](c1ccc(-c3ccc(C(C)=O)cc3)cc1)[C@@H]1C(=O)N(C)C(=O)[C@@H]12 | > 42 µM (inactive)
16 | O=C(O)CCSc1ccc([N+](=O)[O-])cc1[N+](=O)[O-] | > 42 µM (inactive)
17 | CCn1c(SCC(N)=O)nnc1-c1cc2c(C)nn(-c3ccccc3)c2s1 | > 42 µM (inactive)
18 | Oc1cccc2ccc(/C=C/c3ccccc3Br)nc12 | > 42 µM (inactive)
19 | CCOC(=O)N1CCN(C(=O)c2ccc(OC)c(OC)c2)CC1 | > 42 µM (inactive)
20 | Cn1c(NCc2ccco2)nc2c1c(=O)n(Cc1ccc(Cl)cc1)c(=O)n2C | > 42 µM (inactive)
21 | CC(C)COc1ccc(C(=O)Nc2ccc([N+](=O)[O-])cc2)cc1 | > 42 µM (inactive)
22 | CSc1ccccc1NC(=O)COc1nsnc1N1CCOCC1 | > 42 µM (inactive)
23 | Cc1[nH]nc2c1C(c1cccs1)C1=C(CC(C)(C)CC1=O)N2 (stereo not given) | > 42 µM (inactive)
24 | CCOC(=O)Nc1sc(=S)n(C)c1C | > 42 µM (inactive)
25 | Cc1nc(-c2ccncc2)sc1C(=O)Nc1ccc(Br)cc1 | > 42 µM (inactive)

Row | SMILES | AC50
26 | O=C(Cc1cccs1)N1CCCC(c2nc3c(nnn3Cc3ccc(F)cc3)c(=O)[nH]2)C1 (stereo not given) | > 42 µM (inactive)
27 | COc1ccc(CN2C(=O)C(=O)N(CC(N)=O)C2=O)cc1 | > 42 µM (inactive)
28 | CC(C)C(NC(=S)Nc1ccccc1)C(=O)O (stereo not given) | > 42 µM (inactive)
29 | COc1ccc2[nH]cc(CCNS(=O)(=O)c3ccc(C)cc3)c2c1 | > 42 µM (inactive)
30 | Cc1ccc(SCC(=O)O/N=C(\N)c2cccc([N+](=O)[O-])c2)cc1 | > 42 µM (inactive)
31 | CC1c2cc3c(cc2CCN1CC(=O)Nc1ccccc1)OCCCO3 (stereo not given) | > 42 µM (inactive)
32 | O=C1CCCC2=C1C(c1ccncc1)c1c(nc(SCc3ccccc3Cl)[nH]c1=O)N2 (stereo not given) | > 42 µM (inactive)
33 | COc1ccc(/C=C(/C#N)S(=O)(=O)c2ccc(C)cc2)cc1 | > 21 µM (inactive)
34 | Cc1sc2nc(CN3CCCC3)nc(NCc3ccncc3)c2c1C | > 42 µM (inactive)
35 | CC1=CC(C)(C)N2C(=O)C3(NCCc4c3[nH]c3ccccc43)c3cc(C)cc1c32 (stereo not given) | > 42 µM (inactive)
36 | CC(C)N=C(NS(=O)(=O)NC(=O)c1ccccc1)c1ccccc1 | > 42 µM (inactive)
37 | Fc1ccc(-c2nnc3ccc(N4CCCC4)nn23)cc1 | > 42 µM (inactive)
38 | O=C(Nc1ccc2nc(-c3ccc4nc[nH]c4c3)[nH]c2c1)c1cccs1 | > 42 µM (inactive)
39 | Cc1nc(SCC(=O)O)n[nH]1 | > 42 µM (inactive)
40 | COc1ccc(NC(=O)c2ccc(COc3ccccc3OC)o2)cc1OC | > 42 µM (inactive)
41 | COc1ccccc1CCNC(=O)/C(=C/c1cccnc1)NC(=O)c1ccccc1 | > 42 µM (inactive)
42 | OCC1(Cc2cccc(Cl)c2)CCCN(Cc2ccc(F)c(F)c2)C1 (stereo not given) | > 42 µM (inactive)
43 | CC(C)(C)c1ccc(C(=O)NCCC(=O)N2CCN(c3ncccn3)CC2)cc1 | > 42 µM (inactive)
44 | CCCCCCCCCCOC(=O)Cn1c(COc2ccc(OC)cc2)[n+](C)c2ccccc21 | > 42 µM (inactive)
45 | Cc1ccc2nc(NC(=O)CNS(=O)(=O)c3ccc(Br)s3)sc2c1 | > 42 µM (inactive)
46 | CN1C(=O)c2cccc3c(Cl)ccc(c23)C1=O | > 42 µM (inactive)
47 | COc1c(C)cc(S(=O)(=O)NC2CC(C)(C)NC(C)(C)C2)c(C)c1C | > 42 µM (inactive)
48 | CN(C(=O)C1CCCO1)c1nnc(-c2cnccn2)s1 (stereo not given) | > 42 µM (inactive)
49 | Nc1nnnn1CC(=O)N/N=C/c1cccs1 | > 42 µM (inactive)
50 | CCCOc1ccc(N2C(=O)CC(N3CCC(C(=O)OCC)CC3)C2=O)cc1 (stereo not given) | > 42 µM (inactive)
